According to BigSolDB 2.1:

COc1cc(C(=O)O)cc(OC)c1O
solubility (mole fraction)
Conditions | 283.15 K | 288.15 K | 293.15 K | 298.15 K | 303.15 K | 308.15 K | 313.15 K | 318.15 K | 323.15 K
in ethanol | 0.0115 | 0.0125 | 0.0145 | 0.0169 | 0.0188 | 0.0217 | 0.0251 | 0.0279 | 0.0316
in ethyl acetate | 0.0007 | 0.00084 | 0.001 | 0.00125 | 0.00149 | 0.0018 | 0.00221 | 0.0026 | 0.00323
in ethylene glycol | 0.00812 | 0.00951 | 0.0113 | 0.0124 | 0.0146 | 0.017 | 0.0203 | 0.0235 | 0.0269
in isopropanol | 0.00401 | 0.00455 | 0.00545 | 0.00627 | 0.00752 | 0.00853 | 0.00971 | 0.0115 | 0.0131
in methanol | 0.0137 | 0.015 | 0.0173 | 0.019 | 0.0209 | 0.0238 | 0.0271 | 0.0298 | 0.0331
in n-butanol | 0.0032 | 0.00375 | 0.00441 | 0.00518 | 0.00624 | 0.00735 | 0.00832 | 0.0098 | 0.0116
in n-hexanol | 0.00241 | 0.00281 | 0.0033 | 0.0042 | 0.0048 | 0.0058 | 0.00702 | 0.00852 | 0.0101
in sec-butanol | 0.00188 | 0.00223 | 0.0029 | 0.00357 | 0.00432 | 0.00503 | 0.00604 | 0.00737 | 0.00921
